Measurements from patent publication US20100093861A1, “TREATMENT OF INSULIN RESISTANCE OR DISEASES ASSOCIATED WITH INSULIN RESISTANCE” (Stevia ApS, priority 2006, published 2010).

How the values were obtained:
11-beta-HSD-1 = experiment: Relative real time RT-PCR in islets of KKAy mice (Example 3): 11-beta-HSD-1; assay type: in vivo; details: 9 weeks
Experimental: (§1) Islets were isolated by the collagenase digestion technique. In brief, the animals were anesthetized with pentobarbital (50 mg/kg intraperitoneally) and midline laparotomy was performed. The pancreas was retrogradely filled with 3 mL ice-cold Hanks balanced salt solution (([HBSS] Sigma Chemical, St Louis, Mo.) supplemented with 0.3 mg/ml collagenase Boehringer Mannheim GmbH, Germany). The pancreas was subsequently removed and incubated for 19 minutes at 37° C. After rinsing in HBSS, the islets were handpicked under a stereomicroscope and immediately transferred to a tubes containing 1 ml Trizol (Gibco/Invitrogene, Calsbad, Calif., USA). The islets isolated from the NMRI mice were incubated overnight at 37° C. and 95% normal atmosphere/5% CO2 in 10 ml RPMI 1640 containing 11.1 mmol/L glucose supplemented with penicillin G and 100 μg/mL streptomycin (all Gibco/Invitrogene, Calsbad, Calif., USA).
(§2) For each group, islets from 3-4 mice (180-200 islets) were pooled in 1 ml Trizol reagent (Gibco/lnvitrogene, Calsbad, Calif., USA) before RNA purification. Total RNA was extracted according to the manufactures' instructions. RNA was quantified by measuring absorbance at 260 and 280 nm. The quality of the RNA was checked by the Agilent 2100 bioanalyzer (Agilent, Santa Clara, USA). […]

C/EBP-alpha = experiment: Gene expression in islets from diabetic KKAy-mice, real time RT-PCR (Example 2): C/EBP-alpha; assay type: in vivo; details: islets of KKAy-mice after nine weeks treatment, normalized to 18S rRNA
Experimental: A the end of the nine week period of the in vivo study in example 1 RNA was purified from Islets, muscle, liver and fat from the three experimental groups, using standard techniques as described in Kiergen, RNA easy.
Gene expression of PDX-1, IRS1, Beta2, 11beta-HSD-1, Akt1, C/EBP-alpha, CPT1, GLUT2, IGF1, IR and Ins1 was measured with Real time RT-PCR using Taq Man Assays normalized to 18S rRNA, using the standard protocol (ABI, USA). All reagents were obtained from (ABI, USA). All probes are standard probes obtainable from ABI, USA, under the specific probe code number, given in respect of each gene.

GLUT2 = experiment: Relative real time RT-PCR in islets of KKAy mice (Example 3): GLUT2; assay type: in vivo; details: 9 weeks
Experimental: as §1, §2

Nkx2-2 = experiment: Affymetrix gene chip analysis of KKAy islets: Nkx2-2; assay type: in vivo, mice; details: ISV vs. KKAy control islets, 9 weeks
Experimental: cRNA preparation and in vitro transcription: In total 6 Affymetrix arrays MOE430 2.0 probe array cartridge were used i.e. for analysis of 3 replicas for the KKAy control group and the ISV group, respectively. Each of the 6 samples consisted of pooled RNA from 3-4 KKAy mice. Preparation of target for hybridization was prepared from 340 ng of total RNA using MessageAmp™ II aRNA Amplification Kits (Ambion), according to the manufacturers instructions. Arrays were hybridised and scanned as described elsewhere (Kruhoffer et al., 2005).

diabetic KKAy-mice = experiment: In vivo study of plasma concentrations of insulin, glucose and triglycerides in KKAy-mice after isosteviol or soybean protein (Example 1); details: oral in diet
Experimental: The following experiment was performed to investigate the effect of isosteviol (ISV) and soybean protein on plasma concentrations of insulin, glucose and triglycerides. Four experimental groups, each consisting of 10 KKAy-mice (obtained from Clea Japan, Tokyo, Japan) and one control group of 20 C57 mice (obtained from Taconic, Ry, Denmark), all 5 weeks old, were feed the following three test diets in a period of nine weeks. • A: standard chow diet (SCD)(ALTROMIN 1320, Brogaarden, Hørsholm). Diet A was fed to one experimental group and to the control group. • B: standard chow diet (SCD) (ALTROMIN 1320, Brogaarden, Hørsholm)+0.02 g/kg BW of ISV (Waco Chemicals, Osaka, Japan). • C: diet containing 50 weight-% standard chow+50 weight-% Soybean Protein (SBP) (NutriPharma, Oslo)
Hormones and lipids were measured from blood sample at start and end of the treatment period. Fasting blood glucose as well as body weight were measured once a week. […] The blood was taken from the tail of the animals.
Isosteviol (ISV) and Soybean Protein (SBP) were given orally. The SBP were incorporated in the food pellet and the ISV was dissolved in absolute ethanol, the solution was inoculated on the pellets and the ethanol was allowed to evaporate, leaving the ISV on the food pellet. All diets were adjusted for vitamins and minerals, so that all diets content the same amount. Beside that, water was given ad libitum and a light cycle of 12 hours/12 hours was used. The experiment was performed in accordance with the guidelines of the Danish Council on Animal Care.

[1] = after 9 weeks of treatment, compared to standard chow diet, ISV 0.02 g/kg BW, SBP 50 weight-% of diet

C[C@@]12CC[C@@H]3[C@@](CC[C@H]4[C@@]3(C)CCC[C@@]4(C)C(=O)O)(CC1=O)C2 (single isomer, unassigned; ent-16) [ISV, ent-16-ketobeyeran-19-oic acid]
down regulation of 11-beta-HSD-1 (11-beta-HSD-1; RT-PCR): 2.5 fold | decreased expression of 11-beta-HSD-1, ISV group vs. control group (11-beta-HSD-1; normalized to 18S rRNA): 61% | decreased expression of C/EBPα compared to standard diet (C/EBP-alpha): 49% | up regulation of the GLUT2 gene transcript (GLUT2; RT-PCR): more than 3 fold | increased expression of GLUT2, ISV group vs. control group (GLUT2; normalized to 18S rRNA): 201% | array: increased expression in Nkx2-2 (Nkx2-2): 2.3 fold | reduction of plasma glucose concentration, SCD vs. treatment (diabetic KKAy-mice; [1]): 73% | reduction of plasma insulin concentration, SCD vs. treatment (diabetic KKAy-mice; [1]): 192% | plasma triglyceride concentration, SCD vs. treatment (diabetic KKAy-mice; nine weeks treatment): 101%
